A word on the EC50: it is the concentration giving half of the maximal effect.

Holding throughout (format): cell-based
The target of one test is T1, CFTR ΔF508 mutant (Homo sapiens, UniProt P13569, DEL508-508).
T1 construct: expressed in transfected cells; host or cells: CFBE41o- cells, adenoviral transduction
Put plainly: YFP-halide influx assay for the CFTR-ΔF508 mutation (CFBE41o- cells). Conditions: forskolin 10.67 μM; for EC50: from (1−F/F0) vs concentration plot. The procedure, abridged:
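EC50 derived from plotting 1−F/F0 (fluorescence 36 s after iodide injection over pre-injection value) against compound concentration. Cells: CFBE41o- transduced with ΔF508-CFTR and YFP quench reporter, corrected 24 h at 27° C or by a CFTR modulator at 37° C.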

A further test has as its target T2, CFTR G551D mutant (Homo sapiens, UniProt P13569, G551D).
T2 construct: expressed in transfected cells; host or cells: HEK293 cells, reverse transfection with plasmids
Kind of test: YFP-halide influx assay for the CFTR-G551D mutation (HEK293 cells). Particulars: forskolin 10.67 μM. The procedure, abridged: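 Channel opening read as I⁻-driven quenching of a YFP H148Q/I152L/F47L reporter over 7 s post-injection, expressed as 1−F/F0 and fitted against concentration for EC50. Cells were HEK293 co-transfected at seeding with G551D CFTR plus reporter, then grown 24 h at 37 °C, 5% CO2.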

The next test concerns the target T3, CFTR-G178R (Homo sapiens, UniProt P13569, G178R).
T3 construct: expressed in transfected cells
Kind of test: YFP-halide influx assay for the CFTR-G178R. Summed up: (§1)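 HEK293 cells reverse-transfected with a CFTR mutant and YFP H148Q/I152L/F47L halide sensor, expressed 24 h at 37° C. Fluorescence quenching followed for 7 s after I⁻ injection; activity expressed as 1−F/F0, with EC50 fitted from 1−F/F0 versus compound concentration.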

The target in the next test is T4, CFTR-G1349D (Homo sapiens, UniProt P13569, G1349D).
T4 construct: expressed in transfected cells
T4 sequence (P13569 whole entry G1349D): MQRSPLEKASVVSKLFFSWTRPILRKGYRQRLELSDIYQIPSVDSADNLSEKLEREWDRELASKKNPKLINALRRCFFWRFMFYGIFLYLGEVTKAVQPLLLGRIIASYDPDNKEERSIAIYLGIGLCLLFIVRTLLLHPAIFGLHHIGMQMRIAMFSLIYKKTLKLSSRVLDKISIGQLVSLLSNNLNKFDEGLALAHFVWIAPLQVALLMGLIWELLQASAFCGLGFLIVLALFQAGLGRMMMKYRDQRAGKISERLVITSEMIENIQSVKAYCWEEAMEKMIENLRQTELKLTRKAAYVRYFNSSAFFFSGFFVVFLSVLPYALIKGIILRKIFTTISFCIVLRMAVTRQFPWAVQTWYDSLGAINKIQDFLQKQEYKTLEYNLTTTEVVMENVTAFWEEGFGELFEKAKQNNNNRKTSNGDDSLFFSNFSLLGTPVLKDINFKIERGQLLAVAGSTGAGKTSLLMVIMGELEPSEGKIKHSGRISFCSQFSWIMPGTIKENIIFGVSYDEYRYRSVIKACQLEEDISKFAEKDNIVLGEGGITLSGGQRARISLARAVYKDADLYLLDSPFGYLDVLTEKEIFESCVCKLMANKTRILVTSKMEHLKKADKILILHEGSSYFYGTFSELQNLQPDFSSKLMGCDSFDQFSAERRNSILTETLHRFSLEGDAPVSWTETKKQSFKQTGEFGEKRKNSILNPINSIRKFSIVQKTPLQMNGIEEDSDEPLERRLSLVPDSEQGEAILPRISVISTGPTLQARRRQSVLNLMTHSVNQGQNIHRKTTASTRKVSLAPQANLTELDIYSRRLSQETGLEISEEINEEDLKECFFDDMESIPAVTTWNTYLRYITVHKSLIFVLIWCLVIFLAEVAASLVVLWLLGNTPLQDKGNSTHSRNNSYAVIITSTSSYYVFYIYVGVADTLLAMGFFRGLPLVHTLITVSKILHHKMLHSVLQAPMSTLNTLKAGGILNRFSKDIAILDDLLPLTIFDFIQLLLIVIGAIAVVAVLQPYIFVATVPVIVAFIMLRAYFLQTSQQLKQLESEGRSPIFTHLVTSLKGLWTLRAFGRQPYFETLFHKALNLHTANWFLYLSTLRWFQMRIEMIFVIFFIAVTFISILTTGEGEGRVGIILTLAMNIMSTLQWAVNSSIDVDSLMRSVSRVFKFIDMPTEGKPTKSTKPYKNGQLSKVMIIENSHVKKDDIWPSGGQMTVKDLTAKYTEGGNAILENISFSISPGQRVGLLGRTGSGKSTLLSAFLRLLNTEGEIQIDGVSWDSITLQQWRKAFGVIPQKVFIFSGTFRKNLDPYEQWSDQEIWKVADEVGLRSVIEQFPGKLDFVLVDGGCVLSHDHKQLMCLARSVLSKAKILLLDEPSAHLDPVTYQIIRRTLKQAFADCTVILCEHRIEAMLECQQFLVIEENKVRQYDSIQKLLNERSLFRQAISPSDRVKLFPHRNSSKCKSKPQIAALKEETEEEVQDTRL
Kind of test: YFP-halide influx assay for the CFTR-G1349D. Summed up:
as §1

In a further test the target is T5, CFTR-S549N (Homo sapiens, UniProt P13569, S549N).
T5 construct: expressed in transfected cells
T5 sequence (P13569 whole entry S549N): as the sequence (P13569 whole entry G1349D) above, with S549N, D1349G counted along it
Kind of test: YFP-halide influx assay for the CFTR-S549N. Details: % Activation: concentration or dose not given beside the values. Summed up: as §1

The target of another test is T6, CFTR-R117H (Homo sapiens, UniProt P13569, R117H).
T6 construct: expressed in transfected cells
T6 sequence (P13569 whole entry R117H): as the sequence (P13569 whole entry G1349D) above, with R117H, D1349G counted along it
Kind of test: YFP-halide influx assay for the CFTR-R117H. Summed up:
as §1

T2 sequence (P13569 whole entry G551D): as the sequence (P13569 whole entry G1349D) above, with G551D, D1349G counted along it
T1 sequence (P13569 with tags, fused parts or gaps DEL508-508): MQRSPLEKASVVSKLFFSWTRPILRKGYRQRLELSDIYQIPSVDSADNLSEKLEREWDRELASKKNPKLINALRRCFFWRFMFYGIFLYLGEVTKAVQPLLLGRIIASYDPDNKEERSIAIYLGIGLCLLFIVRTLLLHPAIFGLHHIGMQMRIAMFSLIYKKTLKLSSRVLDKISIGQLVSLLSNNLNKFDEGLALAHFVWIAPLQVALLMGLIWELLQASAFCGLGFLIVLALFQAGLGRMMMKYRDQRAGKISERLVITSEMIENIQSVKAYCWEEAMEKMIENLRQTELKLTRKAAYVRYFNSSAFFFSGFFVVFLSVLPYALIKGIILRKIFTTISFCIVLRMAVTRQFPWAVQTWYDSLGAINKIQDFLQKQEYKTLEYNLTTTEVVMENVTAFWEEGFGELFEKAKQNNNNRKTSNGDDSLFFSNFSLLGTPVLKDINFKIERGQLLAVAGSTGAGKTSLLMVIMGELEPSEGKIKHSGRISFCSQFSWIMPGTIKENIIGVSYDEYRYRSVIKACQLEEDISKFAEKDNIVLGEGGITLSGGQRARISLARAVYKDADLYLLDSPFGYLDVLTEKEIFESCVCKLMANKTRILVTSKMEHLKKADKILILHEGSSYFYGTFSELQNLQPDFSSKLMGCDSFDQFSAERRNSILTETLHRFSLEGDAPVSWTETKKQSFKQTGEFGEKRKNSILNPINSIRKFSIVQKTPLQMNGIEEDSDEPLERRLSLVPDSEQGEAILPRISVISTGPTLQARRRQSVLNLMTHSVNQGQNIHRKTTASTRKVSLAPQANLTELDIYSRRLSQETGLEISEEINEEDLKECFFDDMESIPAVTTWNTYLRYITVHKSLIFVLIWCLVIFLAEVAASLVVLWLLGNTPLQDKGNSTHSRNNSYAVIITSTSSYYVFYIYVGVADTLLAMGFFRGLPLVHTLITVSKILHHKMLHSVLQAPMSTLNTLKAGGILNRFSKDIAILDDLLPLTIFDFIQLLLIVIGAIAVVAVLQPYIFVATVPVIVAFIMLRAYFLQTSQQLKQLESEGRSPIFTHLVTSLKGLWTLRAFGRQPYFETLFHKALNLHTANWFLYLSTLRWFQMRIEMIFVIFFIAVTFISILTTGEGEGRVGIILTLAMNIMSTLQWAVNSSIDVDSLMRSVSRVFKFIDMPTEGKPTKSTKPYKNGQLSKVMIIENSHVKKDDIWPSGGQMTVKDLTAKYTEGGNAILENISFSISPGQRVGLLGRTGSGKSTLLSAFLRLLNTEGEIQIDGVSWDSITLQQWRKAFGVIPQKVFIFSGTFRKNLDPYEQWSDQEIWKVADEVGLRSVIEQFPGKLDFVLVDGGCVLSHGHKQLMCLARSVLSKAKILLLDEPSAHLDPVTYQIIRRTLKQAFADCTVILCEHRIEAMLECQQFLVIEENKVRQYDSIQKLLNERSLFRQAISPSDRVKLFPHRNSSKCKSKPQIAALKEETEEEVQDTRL
T3 sequence (P13569 whole entry G178R): as the sequence (P13569 whole entry G1349D) above, with G178R, D1349G counted along it

Regarding `Nc1cc(S(=O)(=O)c2ccc(OC(F)(F)F)cc2)cnc1C(=O)NCCO` [Compound 14, 3-amino-N-(2-hydroxyethyl)-5-{[4-(trifluoromethoxy)phenyl]sulfonyl}pyridine-2-carboxamide], the “% Activation” value on CFTR ΔF508 mutant is listed as 108.1%; on CFTR G551D mutant, 71.6%; at CFTR-G178R it was 70.7%; on CFTR-G1349D it was 66.7%; on CFTR-S549N it was 68.9%; on CFTR-R117H it was 89.7%. For the same compound, the EC50 turned out to be 23.7 nM at CFTR ΔF508 mutant; 1330 nM on CFTR G551D mutant; 741 nM on CFTR-G178R; 816 nM on CFTR-G1349D; 1100 nM at CFTR-S549N; 943 nM at CFTR-R117H.

Take `Nc1cc(S(=O)(=O)c2ccc(OC(F)(F)F)cc2)cnc1C(=O)NCC(O)COCC1CC1` (centres unmarked) [Compound 31, 3-amino-N-[3-(cyclopropylmethoxy)-2-hydroxypropyl]-5-{[4-(trifluoromethoxy)phenyl]sulfonyl}pyridine-2-carboxamide]: the “% Activation” value at CFTR ΔF508 mutant was determined as 106.2%; at CFTR G551D mutant, 71.7%; on CFTR-G178R it was 84.3%; on CFTR-G1349D, 86.8%; at CFTR-S549N it was 91.4%; on CFTR-R117H it was 100.0%. The EC50 was 18.6 nM on CFTR ΔF508 mutant; 425 nM at CFTR G551D mutant; 348 nM at CFTR-G178R; 511 nM at CFTR-G1349D; 567 nM at CFTR-S549N; 866 nM on CFTR-R117H.

`Nc1cc(S(=O)(=O)c2ccc(OC(F)(F)F)cc2)cnc1C(=O)N1CC(F)(F)C1` [Compound 40, (3-amino-5-{[4-(trifluoromethoxy)phenyl]sulfonyl}pyridin-2-yl)(3,3-difluoroazetidin-1-yl)methanone]: the “% Activation” value at CFTR ΔF508 mutant amounted to 105.5%; at CFTR G551D mutant, 70.2%; on CFTR-G178R, 81.76%; on CFTR-G1349D, 84.31%; at CFTR-S549N, 84.51%; at CFTR-R117H, 86.71%. The EC50 was found to be 22.9 nM at CFTR ΔF508 mutant; 656 nM at CFTR G551D mutant; 392 nM on CFTR-G178R; 440 nM at CFTR-G1349D; 1200 nM at CFTR-S549N; 291 nM on CFTR-R117H.

As to `Nc1cc(S(=O)(=O)c2ccc(OC(F)(F)F)cc2)cnc1C(=O)N1CC(O)C1` [Compound 32, (3-amino-5-{[4-(trifluoromethoxy)phenyl]sulfonyl}pyridin-2-yl)(3-hydroxyazetidin-1-yl)methanone], the “% Activation” value on CFTR ΔF508 mutant was 96.1%; at CFTR G551D mutant, 65.8%; on CFTR-G178R, 78.0%; at CFTR-G1349D it was 88.0%; at CFTR-S549N, 91.7%; on CFTR-R117H it was 91.3%. Moreover, the EC50 at CFTR ΔF508 mutant was 14.5 nM; at CFTR G551D mutant, 1940 nM; on CFTR-G178R, 522 nM; on CFTR-G1349D, 536 nM; on CFTR-S549N, 711 nM; on CFTR-R117H, 460 nM.

Take `COC[C@H](O)CNC(=O)c1ncc(S(=O)(=O)c2ccc(C(F)(F)F)cc2)cc1N` [Compound 70, 3-amino-N-[(2R)-2-hydroxy-3-methoxypropyl]-5-{[4-(trifluoromethyl)phenyl]sulfonyl}pyridine-2-carboxamide]: the “% Activation” value on CFTR ΔF508 mutant worked out at 111.6%; at CFTR G551D mutant, 75.3%; at CFTR-G178R, 96.0%; on CFTR-G1349D, 89.6%; on CFTR-S549N, 104.7%; on CFTR-R117H, 98.8%. For the same compound, the EC50 on CFTR ΔF508 mutant stood at 16.9 nM; at CFTR G551D mutant it was 864 nM; on CFTR-G178R, 425 nM; at CFTR-G1349D, 378 nM; on CFTR-S549N it was 526 nM; at CFTR-R117H, 540 nM.

For the compound `Nc1cc(S(=O)(=O)c2ccc(OC(F)(F)F)cc2)cnc1C(=O)NC[C@@H](O)C(F)(F)F` [Compound 37, 3-amino-N-[(2R)-3,3,3-trifluoro-2-hydroxypropyl]-5-{[4-(trifluoromethoxy)phenyl]sulfonyl}pyridine-2-carboxamide], on CFTR ΔF508 mutant, the “% Activation” value stood at 106.4% and the EC50 was 2.3 nM. Moreover, on CFTR G551D mutant, the “% Activation” value is 83.7% and the midpoint of the response, the EC50, lay at 271 nM.

As to `C[C@H](O)CNC(=O)c1ncc(S(=O)(=O)c2ccc(OC(F)(F)F)cc2)cc1N` [Compound 21, 3-amino-N-[(2S)-2-hydroxypropyl]-5-{[4-(trifluoromethoxy)phenyl]sulfonyl}pyridine-2-carboxamide], the “% Activation” value on CFTR ΔF508 mutant is recorded as 109.0%; at CFTR G551D mutant, 85.1%; on CFTR-G178R, 86.1%; at CFTR-G1349D, 88.9%; on CFTR-S549N, 86.4%; at CFTR-R117H it was 93.3%. Further, the EC50 on CFTR ΔF508 mutant came out at 14.9 nM; at CFTR G551D mutant, 1200 nM; at CFTR-G178R, 284 nM; on CFTR-G1349D, 498 nM; at CFTR-S549N, 748 nM; on CFTR-R117H it was 289 nM.

Take `Nc1cc(S(=O)(=O)c2ccccc2OC(F)(F)F)cnc1C(=O)NC[C@@H](O)C(F)(F)F` [Compound 81, 3-amino-N-[(2R)-3,3,3-trifluoro-2-hydroxypropyl]-5-{[2-(trifluoromethoxy)phenyl]sulfonyl}pyridine-2-carboxamide]: the “% Activation” value at CFTR ΔF508 mutant is given as 104.0%; on CFTR G551D mutant it was 108.0%; on CFTR-G178R it was 104.8%; on CFTR-G1349D, 96.01%; at CFTR-S549N it was 107%; on CFTR-R117H, 113.2%. Besides, the EC50 at CFTR ΔF508 mutant came out at 0.5 nM; at CFTR G551D mutant, 239 nM; at CFTR-G178R it was 12.6 nM; at CFTR-G1349D, 9.54 nM; on CFTR-S549N, 11.1 nM; on CFTR-R117H, 21.8 nM.

As to `Nc1cc(S(=O)(=O)c2ccc(OC(F)(F)F)cc2)cnc1C(=O)NC[C@H](O)C(F)(F)F` [Compound 26, 3-amino-N-[(2S)-3,3,3-trifluoro-2-hydroxypropyl]-5-{[4-(trifluoromethoxy)phenyl]sulfonyl}pyridine-2-carboxamide], on CFTR ΔF508 mutant, the “% Activation” value is on record as 105.3% and the EC50 was determined as 2.2 nM. Moreover, on CFTR G551D mutant, the “% Activation” value came to 80.8% and the EC50 was 315 nM.

As to `Nc1cc(S(=O)(=O)c2ccc(OC(F)(F)F)cc2)cnc1C(=O)NCC(O)C(F)(F)F` (centres unmarked) [Compound 6, 3-amino-N-(3,3,3-trifluoro-2-hydroxypropyl)-5-{[4-(trifluoromethoxy)phenyl]sulfonyl}pyridine-2-carboxamide], the “% Activation” value at CFTR ΔF508 mutant was found to be 114.0%; at CFTR G551D mutant, 82.5%; on CFTR-G178R, 93.1%; at CFTR-G1349D, 87.4%; on CFTR-S549N, 87.1%; on CFTR-R117H, 95.7%. The EC50 on CFTR ΔF508 mutant amounted to 3.4 nM; at CFTR G551D mutant it was 350 nM; on CFTR-G178R, 80.7 nM; on CFTR-G1349D, 158 nM; on CFTR-S549N, 390 nM; on CFTR-R117H, 63.9 nM.

Source of the values: patent US10047051B2, “Substituted pyridines and method of use” (AbbVie S.á{acute over (.)}r.l., priority 2015, dated 2018).
